Results as given in publication PMC7369637, “Inhibition of Resistance-Refractory P. falciparum Kinase PKG Delivers Prophylactic, Blood Stage, and Transmission-Blocking Antiplasmodial Activity” (Cell Chemical Biology, 2020).
pIC50: −log10 of the molar value.

Tests used:
sel. Dd2-B2 TKL3T1268R = experiment: 72-h ABS assay, MMV030084-selected line; type: cell-based, Plasmodium falciparum
Experimental: (§1) Synchronicity was achieved using three rounds of sorbitol treatment on early rings, spaced 48 h apart, followed by magnetic purification of segmented schizonts following the final sorbitol treatment. Parasites were highly synchronous to within a 3 h window of development. Assays were repeated on at least three independent occasions (each with technical duplicates) and statistical significance was assessed using Mann Whitney U tests.
The resulting MMV030084-resistant parasites were cloned by limiting dilution ([Baker et al., 2017]) to obtain genetically homogenous cultures for further phenotyping and whole-genome sequencing. A second round of […]. […] Drug susceptibility of resistant lines was assessed using a 72 h ABS assay as described above, and a Mann Whitney U test was applied to assess statistically significant differences.

[1] = system: recombinant TKL3 kinase domain; experiment: Radioactive in vitro kinase assay with recombinant TKL3 kinase domain; type: biochemical, Plasmodium falciparum; conditions: 20 μM compound
Experimental: Recombinant proteins were expressed in E. coli as previously described ([Abdi et al., 2010]). […] The cultures were then cooled to 20°C followed by induction of protein expression with 0.5 mM IPTG and further incubation at 20°C, 200 rpm for 16 h. Cultures were harvested by centrifugation at 4000g, 4°C for 10 min. Bacterial pellets were washed once in 1× PBS and were stored at −80°C. Cell pellets were resuspended in ice-cold Lysis Buffer (50 mM sodium phosphate, pH 8.0, 400 mM NaCl, 5 % (w/v) glycerol, 0.1 % (v/v) Triton X-100, 20 mM imidazole, 2 mM β-mercaptoethanol, 1× Roche protease inhibitor cocktail EDTA-free, 1 mg/ml lysozyme). Cells were disrupted by sonication. Protein was bound on a HisTrap HP column and eluted with a linear gradient of increasing imidazole concentrations. The peak fractions as determined by A280 trace were pooled together and further purified by size exclusion chromatography on a S200 gel filtration column equilibrated in 25 mM Tris pH 7.5, 100 mM NaCl, 5 % (w/v) glycerol, 1 mM DTT. Protein was pooled and concentrated. Final concentration was determined using a Bradford assay with a BSA protein standard.
Kinase assays containing 3 μg of recombinant kinase (WT or mutant) were performed in kinase assay buffer (25 mM Hepes, pH 7.5, 2 mM MnCl2, 10 mM β-glycerophosphate, 10 mM NaF, 25 μM ATP (containing 5 μCi [γ-^32P]-ATP-3000 mCi/mmol (PerkinElmer)), 5 μg substrate myelin basic protein (MBP) and ± 20 μM inhibitor) in a final reaction volume of 20 μl and incubated at 30°C for 30 min. Reactions were stopped by the addition of 5× Laemmli sample buffer and heated to 98°C for 5 min. Proteins were resolved by 4-12 % SDS-PAGE and stained in Coomassie Brilliant Blue. Kinase activity was detected by phosphorimaging. Imaging was performed on a Typhoon 5 Biomolecular imager (GE Healthcare Life Sciences).

Pf Dd2-B2 ABS parasites = experiment: 72-h asexual blood stage (ABS) growth inhibition assay, Dd2-B2; type: cell-based, Plasmodium falciparum; conditions: Dd2-B2 wild-type, 72 h; read-out: Mean IC50, 72 h ABS activity
Experimental: as §1

CDPK1 cKD line = experiment: Compound susceptibility assay using cKD lines (72 h, Renilla luciferase); type: cell-based, Plasmodium falciparum; conditions: CDPK1 cKD line
Excerpt: (§2) To study the interaction between the compounds and PKG (PF3D7_1436600), AAT (PF3D7_1231400), CDPK1 (PF3D7_0217500), TKL3 (PF3D7_1349300), PP1 (PF3D7_1414400), and URP (PF3D7_0808300), cKD lines were generated by fusing the transcripts with RNA aptamers for translation regulation with the TetR/DOZI system ([Ganesan et al., 2016]). The right homology regions (RHR) of each target gene were amplified by PCR, using the primers listed in Table S1 (A), and along with the left homology regions (LHR) were fused to the re-codonized 3'-end region of the gene. Single guide RNA fragments were synthesized using the BioXP™ 3200 System (SGI-DNA; Table S1 (A)) and were cloned into the pSN054 vector ([Nasamu et al., 2019]) to install the C-terminal epitope tags V5 and 2x-hemagglutinin (HA) followed by a 10x RNA aptamer array and the TetR-DOZI expression cassette. This cassette also contained Blasticidin S-deaminase for selection in the parasites and the reporter gene Renilla luciferase (RLuc). The 3'-end of each target was re-codonized to avoid further modifications of the edited locus in the parasite via removal of the PAM site. Donor vector generation was carried out via Gibson assembly, and the final construct sequence was confirmed by restriction digests and Sanger sequencing.
(§3) Transfection into parasites was carried out by preloading erythrocytes with linearized vectors as described previously ([Deitsch et al., 2001]). Briefly, 50 μg of purified plasmid DNA was mixed with human RBC and subjected to 8 square wave electroporation pulses of 365 V for 1 ms each, separated by 0.1 s in a 0.2 cm cuvette. The plasmid DNA preloaded cells were inoculated with NF54 parasites expressing Cas9 and T7 RNA polymerase, maintained in 500 nM anhydrotetracycline (aTc, Sigma-Aldrich 37919), and drug selection with 2.5 μg/mL of Blasticidin (RPI Corp B12150-0.1) was initiated four days after transfection. Emergence of transfectants was monitored via Giemsa smears and RLuc measurements.
(§4) Synchronized ring-stage cKD parasites in varying aTc concentrations (high = 50 nM, intermediate = 1.5 nM, low = 1 nM, and no aTc) were distributed into the drug plate. No-drug treatment and treatment with a lethal dose of chloroquine (200 nM) served as reference controls.

URP cKD line = experiment: as above; type: cell-based, Plasmodium falciparum
Excerpt: as §2, §3, §4

TKL3 cKD line = experiment: as above; type: cell-based, Plasmodium falciparum; conditions: TKL3 cKD line
Excerpt: as §2, §3, §4

PKG cKD line = experiment: as above; type: cell-based, Plasmodium falciparum; conditions: PKG cKD line
Excerpt: as §2, §3, §4

PP1 cKD line = experiment: as above; type: cell-based, Plasmodium falciparum
Excerpt: as §2, §3, §4

AAT cKD line = experiment: as above; type: cell-based, Plasmodium falciparum; conditions: AAT cKD line
Excerpt: as §2, §3, §4

[2] = biological target: T1, cGMP-dependent protein kinase (PKG) (PF3D7_1436600) (Plasmodium falciparum, UniProt Q8I719); experiment: Competitive chemoproteomics in Pf lysates (Kinobeads / bead-immobilized compound); type: binding; conditions: lysates exposed to 40 μM of the same compound vs vehicle
T1 construct: The beads were incubated at 4°C for 1 h with either 0.1 ml (0.3 mg) Pf blood stage extract; endogenous in cells; host or cells: P. falciparum asexual blood-stage parasites (trophozoite stage), saponin-freed and lysed

[3] = biological target: T2, calcium-dependent protein kinase 1 (CDPK1) (PF3D7_0217500) (Plasmodium falciparum, UniProt P62344); experiment: as above; type: binding; conditions: lysates exposed to 40 μM of the same compound vs vehicle
T2 construct: endogenous in cells; host or cells: P. falciparum asexual blood-stage parasites (trophozoite stage)
Experimental: (§5) Pf protein extracts were prepared as described elsewhere ([Paquet et al., 2017]). Parasite cultures at the trophozoite stage were harvested, washed twice in RPMI 1640 medium (Gibco), and lysed by the addition of saponin to a final concentration of 0.1% for 5 min at room temperature. Free parasites were sedimented by centrifugation (3500 rpm for 10 min), washed three times with phosphate-buffered saline, and stored at −80°C. Parasites were resuspended in cell lysis buffer (50 mM tris-HCl (pH 7.5), 5% glycerol, 1.5 mM MgCl2, […], 1 mM […], 25 mM sodium fluoride, 0.8% NP-40, EDTA-free protease inhibitor cocktail tablets (Roche Diagnostics), and 1 mM DTT) and disrupted by sonication (Sonics Vibra-Cell) using two 30-s cycles on ice at half-amplitude. After centrifugation (140,000g for 1 h at 4°C), soluble proteins were recovered from the supernatants, and protein concentrations of each sample were estimated using the Lowry-based DC assay (Bio-Rad). Samples were stored at −80°C until use.
(§6) Kinobeads were prepared by immobilizing Bis-(III) indolyl-maleimide, purvalanol B, staurosporine and CZC8004, and the analogs of PD173955, sunitinib and vandetanib on NHS-activated Sepharose 4 beads (Amersham) ([Bantscheff et al., 2007]). […] The chemoproteomic affinity-capturing experiments were performed as previously described ([Bantscheff et al., 2011]). Briefly, beads were washed and equilibrated in lysis buffer (50 mM Tris-HCl, pH 7.4, 0.4 % Igepal-CA630, 1.5 mM MgCl2, 5 % Glycerol, 150 mM NaCl, 25 mM NaF, 1 mM Na3VO4, 1 mM DTT, and one cOmplete EDTA-free protease inhibitor tablet (Roche) per 25 mL). The beads were incubated at 4°C for 1 h with either 0.1 ml (0.3 mg) Pf blood stage extract or 0.5 mL (2.5 mg) human cell/tissue protein extract (a mixture of HEK-293, K-562, Hep G2 , and placental cells), which was pre-incubated with compound or DMSO (vehicle control). 10 samples were measured in parallel (TMT 10-plex ([Werner et al., 2014])) to generate values for the affinity of the beads to the bound proteins (“depletion” values, 4 samples) and to generate IC50 values (6 samples) in a single experiment. Apparent dissociation constants were determined after accounting for protein depletion by the beads ([Bantscheff et al., 2011]). Beads were transferred to Filter plates (Durapore PVDF membrane, Merck Millipore), washed with lysis buffer, and eluted with SDS sample buffer.
(§7) Proteins were digested according to a modified single pot solid-phase sample preparation (SP3) protocol ([Hughes et al., 2014]). Peptides were labeled with isobaric mass tags (Thermo Fisher Scientific, Waltham, MA) using 10-plex TMT reagents, enabling relative quantification of 10 conditions in a single experiment ([Werner et al., 2014]). The labeling reactions and LC-MS/MS measurements using Q Exactive Orbitrap or Orbitrap Fusion Lumos mass spectrometers (Thermo Fisher Scientific) were performed as described elsewhere ([Sridharan et al., 2019]). Mascot 2.4 (Matrix Science, Boston, MA) was used for protein identification by using a 10 parts per million mass tolerance for peptide precursors and 20 mD (HCD) mass tolerance for fragment ions. To create the fasta file for mascot searching, all proteins corresponding to the taxonomy ‘Plasmodium falciparum (isolate 3D7)’ were downloaded from Uniprot (release 20170621) and supplemented with common contaminant protein sequences of bovine serum albumin, porcine trypsin and mouse, rat, sheep and dog keratins. To assess the false discovery rate (FDR), “decoy” proteins (reverse of all protein sequences) were created and added to the database, resulting in a database containing a total of 14266 protein sequences, with 50% forward and 50% reverse. For peptide and protein identification of human proteins see ([Sridharan et al., 2019]). […]

[4] = biological target: putative amino acid transporter (AAT) (PF3D7_1231400) (Plasmodium falciparum, UniProt Q8I5A6); experiment: as above; type: binding; conditions: lysates exposed to 40 μM of the same compound vs vehicle
Experimental: as §5, §6, §7

B-raf kinase = conditions: ref Gamo et al., 2010; cited from earlier work

T1 sequence (Q8I719 whole entry): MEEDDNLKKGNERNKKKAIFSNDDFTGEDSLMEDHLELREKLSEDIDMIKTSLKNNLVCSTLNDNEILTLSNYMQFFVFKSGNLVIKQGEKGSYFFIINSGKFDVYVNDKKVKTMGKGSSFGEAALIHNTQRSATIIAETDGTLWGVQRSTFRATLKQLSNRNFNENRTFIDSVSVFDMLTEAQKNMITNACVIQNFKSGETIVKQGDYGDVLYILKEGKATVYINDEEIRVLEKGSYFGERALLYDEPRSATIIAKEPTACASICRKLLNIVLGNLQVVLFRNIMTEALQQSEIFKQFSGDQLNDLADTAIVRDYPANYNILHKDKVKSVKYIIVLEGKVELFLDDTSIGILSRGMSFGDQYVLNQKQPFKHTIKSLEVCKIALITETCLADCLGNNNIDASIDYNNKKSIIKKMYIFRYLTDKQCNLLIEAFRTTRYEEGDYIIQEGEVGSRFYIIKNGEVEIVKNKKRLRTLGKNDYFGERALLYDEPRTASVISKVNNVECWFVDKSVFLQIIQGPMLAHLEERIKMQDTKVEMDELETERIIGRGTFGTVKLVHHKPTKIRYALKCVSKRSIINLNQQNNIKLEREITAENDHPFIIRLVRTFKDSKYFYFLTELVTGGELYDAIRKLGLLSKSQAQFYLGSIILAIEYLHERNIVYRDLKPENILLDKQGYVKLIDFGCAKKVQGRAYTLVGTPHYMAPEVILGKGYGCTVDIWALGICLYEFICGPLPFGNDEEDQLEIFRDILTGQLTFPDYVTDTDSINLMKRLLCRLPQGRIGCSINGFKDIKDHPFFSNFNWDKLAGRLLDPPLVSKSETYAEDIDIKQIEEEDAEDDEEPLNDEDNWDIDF
T2 sequence (P62344 whole entry): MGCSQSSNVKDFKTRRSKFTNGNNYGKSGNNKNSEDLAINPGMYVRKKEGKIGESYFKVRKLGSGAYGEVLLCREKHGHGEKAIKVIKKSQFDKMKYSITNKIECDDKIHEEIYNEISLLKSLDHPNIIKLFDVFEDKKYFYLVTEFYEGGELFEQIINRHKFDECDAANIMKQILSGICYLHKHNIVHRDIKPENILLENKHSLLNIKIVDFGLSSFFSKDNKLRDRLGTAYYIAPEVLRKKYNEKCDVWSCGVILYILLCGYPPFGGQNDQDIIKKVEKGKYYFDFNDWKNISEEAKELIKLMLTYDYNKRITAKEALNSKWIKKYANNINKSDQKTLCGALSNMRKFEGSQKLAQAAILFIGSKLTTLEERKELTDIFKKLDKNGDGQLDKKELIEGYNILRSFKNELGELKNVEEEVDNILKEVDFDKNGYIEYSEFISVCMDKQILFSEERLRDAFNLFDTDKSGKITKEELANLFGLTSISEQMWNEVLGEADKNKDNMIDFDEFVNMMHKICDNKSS
Chain of putative amino acid transporter (AAT) (PF3D7_1231400) (Q8I5A6 entry or part of it): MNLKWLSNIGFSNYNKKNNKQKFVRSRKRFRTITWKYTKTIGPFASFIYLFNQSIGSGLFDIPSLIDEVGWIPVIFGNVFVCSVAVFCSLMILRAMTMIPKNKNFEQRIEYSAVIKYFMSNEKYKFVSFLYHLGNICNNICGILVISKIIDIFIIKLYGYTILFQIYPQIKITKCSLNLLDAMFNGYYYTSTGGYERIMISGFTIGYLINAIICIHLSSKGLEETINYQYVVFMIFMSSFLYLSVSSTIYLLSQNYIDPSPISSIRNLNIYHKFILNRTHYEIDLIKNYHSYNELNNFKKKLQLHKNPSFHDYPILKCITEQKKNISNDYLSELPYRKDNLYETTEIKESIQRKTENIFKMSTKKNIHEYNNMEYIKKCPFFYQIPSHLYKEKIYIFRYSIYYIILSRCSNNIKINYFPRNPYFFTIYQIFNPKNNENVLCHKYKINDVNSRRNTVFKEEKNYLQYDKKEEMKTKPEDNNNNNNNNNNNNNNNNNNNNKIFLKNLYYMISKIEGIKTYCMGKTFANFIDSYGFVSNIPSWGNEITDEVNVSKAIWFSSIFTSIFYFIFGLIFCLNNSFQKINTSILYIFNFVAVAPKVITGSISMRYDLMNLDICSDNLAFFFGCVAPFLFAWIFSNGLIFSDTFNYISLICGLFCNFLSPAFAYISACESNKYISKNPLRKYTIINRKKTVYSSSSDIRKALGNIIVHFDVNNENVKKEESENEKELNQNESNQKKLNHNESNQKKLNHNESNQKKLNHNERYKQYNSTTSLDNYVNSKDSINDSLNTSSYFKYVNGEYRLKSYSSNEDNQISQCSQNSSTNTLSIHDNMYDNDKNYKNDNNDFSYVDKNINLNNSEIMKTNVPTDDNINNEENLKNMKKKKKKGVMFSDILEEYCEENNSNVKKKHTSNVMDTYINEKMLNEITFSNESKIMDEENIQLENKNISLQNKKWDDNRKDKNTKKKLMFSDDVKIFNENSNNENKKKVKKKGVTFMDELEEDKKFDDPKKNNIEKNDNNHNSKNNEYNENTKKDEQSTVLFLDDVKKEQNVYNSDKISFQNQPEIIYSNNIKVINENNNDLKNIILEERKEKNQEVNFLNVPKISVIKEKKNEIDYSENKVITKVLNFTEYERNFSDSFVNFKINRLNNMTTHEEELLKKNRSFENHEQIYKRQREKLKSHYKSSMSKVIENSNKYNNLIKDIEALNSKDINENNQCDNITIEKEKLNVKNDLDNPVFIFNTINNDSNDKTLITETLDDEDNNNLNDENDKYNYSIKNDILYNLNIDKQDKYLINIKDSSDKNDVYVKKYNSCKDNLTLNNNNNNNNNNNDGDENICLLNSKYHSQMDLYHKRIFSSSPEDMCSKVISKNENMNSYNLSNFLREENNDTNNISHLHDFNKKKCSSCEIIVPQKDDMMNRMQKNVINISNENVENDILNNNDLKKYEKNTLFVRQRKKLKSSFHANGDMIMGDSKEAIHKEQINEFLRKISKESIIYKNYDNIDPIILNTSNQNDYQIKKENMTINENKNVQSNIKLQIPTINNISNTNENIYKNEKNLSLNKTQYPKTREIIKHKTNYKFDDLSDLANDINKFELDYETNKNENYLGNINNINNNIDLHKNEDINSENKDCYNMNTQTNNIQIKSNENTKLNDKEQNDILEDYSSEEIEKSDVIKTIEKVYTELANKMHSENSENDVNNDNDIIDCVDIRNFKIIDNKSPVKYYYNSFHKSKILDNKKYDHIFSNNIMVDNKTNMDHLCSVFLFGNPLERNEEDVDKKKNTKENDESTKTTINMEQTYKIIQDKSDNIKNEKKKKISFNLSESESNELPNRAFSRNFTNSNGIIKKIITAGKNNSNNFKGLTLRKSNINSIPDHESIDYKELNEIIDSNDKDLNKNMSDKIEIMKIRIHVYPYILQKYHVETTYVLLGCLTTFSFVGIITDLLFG

With CC(C)(CN)c1nc(-c2ccc(Cl)c(O)c2)c(-c2ccnc(N)n2)[nH]1 [MMV030734] the pIC50 (sel. Dd2-B2 TKL3T1268R) was 6.71, the “Reduction in TKL3 kinase activity” value [1] was “no reduction” and the pIC50 (Pf Dd2-B2 ABS parasites) was 7.19. The pIC50 (CDPK1 cKD line; Control, [aTc] used 50.0) was 7.68, the pIC50 (CDPK1 cKD line; KD, [aTc] used 1.0) was 7.74 and the pIC50 (URP cKD line; Control, [aTc] used 50.0) was 7.47. For the same compound, the pIC50 (URP cKD line; KD, [aTc] used 0.0) was 7.35, the pIC50 (TKL3 cKD line; Control, [aTc] used 50.0) was 7.43 and the pIC50 (TKL3 cKD line; KD, [aTc] used 0.0) was 7.09. It also gave a pIC50 (PKG cKD line; Control, [aTc] used 50.0) of 7.68, a pIC50 (PKG cKD line; KD, [aTc] used 1.0) of 8.08 and a pIC50 (PP1 cKD line; Control, [aTc] used 50.0) of 7.53. For the same compound, the pIC50 (PP1 cKD line; KD, [aTc] used 1.5) was 7.44, the pIC50 (AAT cKD line; Control, [aTc] used 50.0) was 7.37 and the pIC50 (AAT cKD line; KD, [aTc] used 0.0) was 7.73.
CC(C)(CN)c1nc(-c2ccc(Br)c(O)c2)c(-c2ccncc2)[nH]1 [TCMDC-140680] gave a pIC50 (sel. Dd2-B2 TKL3T1268R) of 6.60 and a pIC50 (Pf Dd2-B2 ABS parasites) of 7.07.
CN1CCC=C(C(=O)NCC(C)(C)c2nc(-c3ccc(Cl)c(O)c3)c(-c3ccncc3)[nH]2)C1 [TCMDC-140700] showed a pIC50 (sel. Dd2-B2 TKL3T1268R) of 5.92 and a pIC50 (Pf Dd2-B2 ABS parasites) of 6.40.
In the case of CNCC(C)(C)c1nc(-c2ccc(Cl)c(O)c2)c(-c2ccncc2)[nH]1.Cl [TCMDC-140762], the pIC50 (sel. Dd2-B2 TKL3T1268R) was 6.35, the “Reduction in TKL3 kinase activity” value [1] was “no reduction” and the pIC50 (Pf Dd2-B2 ABS parasites) was 6.73.
For CC(C)(CNC(=O)[C@H]1CCCN1)c1nc(-c2ccc(Cl)c(O)c2)c(-c2ccncc2)[nH]1 [TCMDC-141060], the pIC50 (sel. Dd2-B2 TKL3T1268R) was 6.23 and the pIC50 (Pf Dd2-B2 ABS parasites) was 6.74.
CC(C)(CNC(=O)[C@H]1CCCCN1)c1nc(-c2ccc(Cl)c(O)c2)c(-c2ccncc2)[nH]1 [TCMDC-141070] showed a pIC50 (sel. Dd2-B2 TKL3T1268R) of 6.14 and a pIC50 (Pf Dd2-B2 ABS parasites) of 6.73.
With CC(C)(CNC(=O)[C@@H]1CCCCN1)c1nc(-c2ccc(Cl)c(O)c2)c(-c2ccncc2)[nH]1.Cl [TCMDC-141079] the pIC50 (sel. Dd2-B2 TKL3T1268R) was 6.11, the “Reduction in TKL3 kinase activity” value [1] was “no reduction” and the pIC50 (Pf Dd2-B2 ABS parasites) was 6.60.
In the case of Cl.NCC1(c2nc(-c3ccc(Cl)c(O)c3)c(-c3ccncc3)[nH]2)CCCCC1 [TCMDC-141154], the “PKG pull-down by bead-bound compound” value [2] was “pulled down”, the pIC50 (sel. Dd2-B2 TKL3T1268R) was 6.43 and the “CDPK1 pull-down by bead-bound compound” value [3] was “pulled down”. For the same compound, the “AAT pull-down by bead-bound compound” value [4] was “pulled down” and the pIC50 (Pf Dd2-B2 ABS parasites) was 6.85.
In the case of CC(C)(CN)c1cc(-c2ccc(Cl)c(O)c2)c(-c2ccncc2)o1.Cl [TCMDC-141334], the “Reported kinase inhibitor activity” value (B-raf kinase) is listed as “B-raf kinase inhibitor”, the pIC50 (sel. Dd2-B2 TKL3T1268R) is listed as 6.22 and the pIC50 (Pf Dd2-B2 ABS parasites) is listed as 6.56.
